# Test results published in US8815241B2, “Use of combination of anti-angiogenic substance and c-kit kinase inhibitor” (Eisai R&D Management Co., Ltd., priority 2005, dated 2014).
# Tested on: Human gastrointestinal stromal tumor cell line GIST882
# Assay: Human cancer cell line subcutaneous xenograft model (GIST882 in nude mouse), combined use
# Type: in vivo
# Conditions: once a day, for two weeks, orally
# Experimental: Human gastrointestinal stromal tumor cell line GIST882 (supplied by The Brigham and Women's Hospital, Inc.) was cultured in RPMI1640 (containing 10% FBS) in a 5% carbon dioxide incubator to about 80% confluence. Following cultivation, each cell was collected by trypsin-EDTA treatment according to a general method. Using a phosphate buffer containing 50% matrigel, 5×10^7 cells/mL suspension was prepared, and 0.2 mL each of the resulting cell suspension was subcutaneously transplanted into the flank of a nude mouse. Starting from twenty-one days after the transplantation, 4-(3-chloro-4-(cyclopropylaminocarbonyl)aminophenoxy)-7-methoxy-6-quinolinecarboxamide (10 mg/kg or 30 mg/kg, once a day, for two weeks) and imatinib (160 mg/kg, twice a day, for two weeks) were orally administered alone or in combination. […] Tumor Volume (TV)=Major axis of tumor (mm)×(Minor axis of tumor)^2 (mm^2)/2 Relative Tumor Volume (RTV)=Tumor volume on measurement day/Tumor volume on the first administration day
structure (smiles),measurement,setting,value
"COc1cc2nccc(Oc3ccc(NC(=O)NC4CC4)c(Cl)c3)c2cc1C(N)=O [Compound A, 4-(3-chloro-4-(cyclopropylaminocarbonyl)aminophenoxy)-7-methoxy-6-quinolinecarboxamide]","Relative tumor volume on Day 15, Average ± standard deviation",Compound A 10 mg/kg alone,2.06 ± 0.16
same,"Relative tumor volume on Day 15, Average ± standard deviation",Compound A 30 mg/kg alone,1.36 ± 0.13
